From patent publication US8293506B2, “L-cysteine-producing bacterium and a method for producing L-cysteine” (Ajinomoto Co., Inc., priority 2009, dated 2012)

Tests used:
[1] = tested on: wild-type strains (E. coli BW25113); assay: Screening of Keio collection on LB agar containing cysteine; format: cell-based, Escherichia coli; conditions: overnight at 37° C.
Description: The 3,985 clones of the Keio collection were cultured at 37° C. for 15 hours in 0.5 ml of LB liquid medium. This culture medium was stamped on LB agar media containing cysteine at different concentrations (0, 15, 20, 25 mM), and culture was performed overnight at 37° C. Clones that were cysteine sensitive at the growth inhibition concentration of cysteine for wild-type strains (20 mM) were visually selected. […] A dsbA gene-deficient strain was obtained as a clone showing particularly strong and distinctive cysteine sensitivity among the above candidates.

[2] = tested on: dsbA-deficient strain JW3832/pCA24; assay: Growth test on L agar medium containing cysteine, dsbA-deficient strain; format: cell-based, Escherichia coli; conditions: L agar with 10, 15, 20 mM cysteine, 37° C. overnight; FIG. 1
Excerpt: (§1) Since a dsbA-deficient strain was obtained by the screening of the Keio Collection, growth of the gene-deficient strain was observed on the agar medium containing cysteine of different concentrations in order to analyze the sensitivity of that strain to cysteine in more detail. Furthermore, as for the to/C gene (Japanese Patent Application No. 2008-040167, Wiriyathanawudhiwong, N. et al., Appl. Microbiol. Biotechnol. (2009) 81:903-913), which was previously obtained in a similar manner, and of which deletion is known to induce cysteine sensitivity, a similar experiment was performed by using a to/C-deficient strain. The dsbA-deficient strain and to/C-deficient strain used in this experiment were JW3832 strain and JW5503 strain, respectively (both were included in the Keio collection), and their parent strain was the BW25113 strain (Andreas Haldimann, A. and Wanner, B. L., J. Bacteriol., 2001 November, 183 (21):6384-6393). The plasmids carrying the dsbA gene and the to/C gene for the complementation experiment were pDsbA and pTo1C (ASKA clone (Kitagawa, M., et al., 2005, DNA Res., 12:291-299)), and the vector used as the base of them was pCA24 (vector for ASKA clone (Kitagawa, M., et al., 2005, DNA Res., 12:291-299)). […]

[3] = tested on: to/C-deficient strain JW5503/pCA24; assay: Growth test on L agar medium containing cysteine, tolC-deficient strain; format: cell-based, Escherichia coli; conditions: L agar with 10, 15, 20 mM cysteine, 37° C. overnight; FIG. 1
Excerpt: as §1

DsbA protein = biological target: T1, DsbA protein (Escherichia coli, UniProt P0AEG4); assay: Oxidized and reduced states of DsbA protein (AMS modification, Western blotting); format: cell-based; conditions: wild-type strain, 5 mM cysteine, 20 minutes; FIG. 2
T1 construct: endogenous in cells; host or cells: E. coli BW25113 (wild-type strain, also with pYdeD)
Excerpt: The strains used in this experiment were the E. coli BW25113 strain (Andreas Haldimann and Barry L. Wanner, J. Bacteriol., 2001 November, 183 (21):6384-6393) as a wild-type parent strain, the dsbA-deficient JW3832 strain and dsbB-deficient JW5182 strain derived from BW25113 strain (Baba, T, et al., 2006, Mol. Syst. Biol., 2:2006.0008). As a plasmid carrying the dsbB gene, pDsbB (ASKA clone, Kitagawa, M. et al., 2005, DNA Res., 12:291-9) was used.
In order to distinguish the oxidized state and the reduced state of the DsbA protein, the protein was modified with AMS (4-acetamido-4′-maleimidyl-stilbene-2,2′-disulfonate) (Kadokura, H. et al., 2004, Science, 303, 534-537). Each of the wild-type strain, the dsbA-deficient strain, the dsbB-deficient strain, the wild-type strain +pYdeD and the dsbB-deficient strain +pDsbB was cultured overnight at 30° C. in 3 ml of LB medium, and the resulting culture was used as a preculture medium. The preculture medium was inoculated into the LB medium in a 1% amount, and culture was performed at 30° C. with shaking until OD660 reached 0.4 to 0.5. […]
The labeled protein was then separated by non-reduced SDS gel electrophoresis (12.5%), and then detected by Western blotting. […] The label was detected by using ECL Plus Western Blotting Detection Reagents (Amersham).

OstA protein = assay: Oxidized and reduced states of OstA protein (AMS modification, Western blotting); format: cell-based, Escherichia coli; conditions: wild-type strain with pmyc-OstA, 5 mM L-cysteine; FIG. 3
Excerpt: Since it was elucidated that the reduced type DsbA was accumulated by cysteine (reduction stress), it was decided to investigate toxicity of cysteine and oxidized and reduced states of a protein in the periplasm. The OstA is a protein in the periplasm indispensable to growth, and requires disulfide bond formed by DsbA. In order to investigate the oxidized and reduced states of the OstA protein, the E. coli BW25113 strain as the wild-type parent strain and the dsbA-deficient JW3832 strain derived from the BW25113 strain were used, and the plasmid pmyc-OstA for expressing OstA fused with an Myc tag (Kadokura, H. et al., 2004, Science, 303, 534-537) was introduced into them. Under the same culture conditions as those of the aforementioned experiment for investigating the oxidized and reduced states of DsbA, addition of L-cysteine (final concentration: 5 mM) and modification of the protein with AMS (4-acetamido-4′-maleimidyl-stilbene-2,2′-disulfonate) were performed, and the OstA protein was detected by Western blotting. As the antibody, anti-Myc (mouse) was used in this experiment.

T1 sequence (P0AEG4 20-208): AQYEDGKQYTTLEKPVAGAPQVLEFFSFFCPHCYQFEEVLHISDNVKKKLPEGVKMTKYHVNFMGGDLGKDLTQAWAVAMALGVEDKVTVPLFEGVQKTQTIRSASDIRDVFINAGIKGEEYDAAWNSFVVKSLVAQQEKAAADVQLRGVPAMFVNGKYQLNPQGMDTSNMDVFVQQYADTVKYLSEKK

N[C@@H](CS)C(=O)O [cysteine, L-cysteine]
growth inhibition concentration of cysteine for wild-type strains [1]: 20 mM | cysteine sensitivity (growth) compared with control strain BW25113/pCA24 [2]: marked cysteine sensitivity | cysteine sensitivity (growth) compared with control strain BW25113/pCA24 [3]: marked cysteine sensitivity | DsbA-DsbB complex after exposure to cysteine (DsbA protein): markedly accumulated | oxidized/reduced state of DsbA after exposure to cysteine (DsbA protein): the reduced type DsbA accumulated | oxidized/reduced state of OstA after addition of cysteine (OstA protein): the reduced type accumulated
